In patent US12285407B2, “Bis-indolylmethane derivatives and uses thereof” (The University of The West Indies, priority 2018, dated 2025):
Where two headings read alike, the source gives them in different places.

Experiments:
Enterococcus faecium = assay: Checkerboard synergy (FICI) of antibiotics with SP-BIM; assay type: cell-based; conditions: Enterococcus faecium, Enterococcus faecium; for MIC: 24 h, antibiotic alone, read-out: MIC antibiotic only
Candida albicans = assay: as above; design: MIC SP-BIM 13 only / MIC in combination: Antibiotic / MIC antibiotic only: unit not given beside the values
Escherichia coli = assay: as above; design: MIC SP-BIM 13 only / MIC in combination: Antibiotic: unit not given beside the values; conditions: for MIC: 24 h
Klebsiella pneumoniae = assay: as above; assay type: cell-based; conditions: for MIC: 24 h, antibiotic alone, read-out: MIC antibiotic only
Staphylococcus aureus = assay: as above; assay type: cell-based; conditions: Staphylococcus aureus, Staphylococcus aureus; for MIC: 24 h, antibiotic alone, read-out: MIC antibiotic only
Bacillus cereus = assay: as above; assay type: cell-based
Streptococcus pneumoniae [1] = assay: as above; assay type: cell-based; conditions: for MIC: 24 h, antibiotic alone, read-out: MIC antibiotic only
[2] = tested on: Corynebacterium diphtheriae ATCC 27010; assay: Broth microdilution MIC of SP-BIMs; assay type: cell-based; conditions: ATCC27010, SP-BIM alone, read-out: MIC Corynebacterium diphtheriae ATCC 27010
[3] = tested on: Pseudomonas aeruginosa ATCC 27853; assay: Broth microdilution MIC of SP-BIMs; assay type: cell-based; conditions: ATCC27853, SP-BIM alone, read-out: MIC Pseudomonas aeruginosa ATCC 27853
[4] = tested on: Klebsiella pneumoniae ATCC 49472; assay: Broth microdilution MIC of SP-BIMs; assay type: cell-based; conditions: ATCC49472, SP-BIM alone, read-out: MIC Klebisella pneumoniae ATCC 49472
[5] = tested on: Salmonella typhimurium ATCC 14028; assay: Broth microdilution MIC of SP-BIMs; assay type: cell-based; conditions: Salmonella enterica, read-out: MIC Salmonella tvpkimurium ATCC 14028
From the text: Reference microorganisms used in this study included: Bacillus cereus (American Type Culture Collection (ATCC) No. 14579), Streptococcus pyogenes (ATCC No. 19615), Staphylococcus aureus (ATCC No. 12600), Enterococcus faecium (ATCC No. 19434), Corynebacterium diphtheriae (ATCC No. 27010), Escherichia coli (ATCC No. 35218), Salmonella typhimurium (ATCC No. 14028), Pseudomonas aeruginosa (ATCC No. 27853), Klebsiella pneumoniae (ATCC No. 49472), and Candida albicans (ATCC No. 22972).
Prior to each experiment, cultures were streaked onto clean BHI agar plates and incubated at 35° C. for 24 hours. Colonies of the respective cultures were selected and inoculated in phosphate buffer saline (pH 7.5) to a 0.5 McFarland turbidity standard (equivalent to 10^8 CFU mL^−1). The bacterial suspension was then diluted 1:100 in cation adjusted Mueller Hinton Broth (ca-MHB) (Oxoid Ltd, Basingstoke, Hampshire, England).
Stock solutions (50 mg mL^−1) of the SP-BIM test compounds were prepared in DMSO and stored at 4° C. Working preparations of each compound was made up to 1 mg/mL in sterile deionized water with a final DMSO concentration of 10%.
To assess the antibiotic properties of the library of SP-BIMs, the broth microdilution assay was performed in 96-well microplates according to the Clinical and Laboratory Standards Institute 2014 Guidelines (CLSI 2014). The broth microdilution assay was used to determine the minimum inhibitory concentration (MIC). […] Bacterial cells (˜10^6 CFU mL^−1) were inoculated into cation adjusted-Mueller Hinton broth containing the test compound in a twofold serial dilution ranging between 250 μg mL^−1 and 0.02 μg mL^−1. Plates were incubated at 35° C. for 18 hours after which 50 μL of 5% resazurin solution was added to each well. Resazurin is a blue dye which, upon reduction by living cells, turns to a pink resorufin product. Plates were shaken for 1 hour after the addition of the dye. The MIC was recorded as the well with the lowest concentration of test compound where no color change was observed.

[6] = tested on: Staphylococcus aureus ATCC 12600; assay: Broth microdilution MIC of SP-BIMs; assay type: cell-based; conditions: ATCC12600, SP-BIM alone, read-out: MIC Staphylococcus aureus ATCC 12600
[7] = tested on: Streptococcus pyogenes ATCC 19615; assay: Broth microdilution MIC of SP-BIMs; assay type: cell-based; conditions: ATCC19615, SP-BIM alone, read-out: MIC Streptococcus pyogenes ATCC 19615
[8] = tested on: Candida albicans ATCC 22972; assay: Broth microdilution MIC of SP-BIMs; assay type: cell-based; conditions: ATCC22972, SP-BIM alone, read-out: MIC Candida albicans ATCC 22972
[9] = tested on: Bacillus cereus ATCC 14579; assay: Broth microdilution MIC of SP-BIMs; assay type: cell-based; conditions: ATCC14579, SP-BIM alone, read-out: MIC Bacillus cereus ATCC 14579
[10] = tested on: Escherichia coli ATCC 35218; assay: Broth microdilution MIC of SP-BIMs; assay type: cell-based; conditions: ATCC35218, SP-BIM alone, read-out: MIC Escherichia coli ATCC 35218
Streptococcus pneumoniae [11] = assay: Adjuvant broth microdilution (antibiotic MIC with SP-BIM at 50 μg/mL); assay type: cell-based; conditions: Streptococcus pneumoniae, Streptococcus pneumonia, SP-BIM at 50 μg mL^−1
[12] = tested on: Enterococcus faecium ATCC 19434; assay: Broth microdilution MIC of SP-BIMs; assay type: cell-based; conditions: ATCC19434, SP-BIM alone, read-out: MIC Enterococcus faecium ATCC 19434
[13] = SP-BIM 13 in combination with the labelled antibiotic
[14] = antibiotic in combination with SP-BIM 13
[15] = MIC of the antibiotic in combination with SP-BIM 13
[16] = SP-BIM 9 in combination with the labelled antibiotic
[17] = antibiotic in combination with SP-BIM 9
[18] = Streptococcus pneumonia (title: Streptococcus pyogenes), antibiotic + SP-BIM 9
[19] = Streptococcus pneumoniae, antibiotic + SP-BIM 13
[20] = read-out: MIC of Kanamvcin with SP-BIM
[21] = read-out: MIC of Vancomvcin with SP-BIM

In the case of `O=C(O)c1cn(C2CC2)c2cc(N3CCNCC3)c(F)cc2c1=O` [Ciprofloxacin, ciprofloxacin], the MIC (Enterococcus faecium; SP-BIM 9 checkerboard) is reported as 8 µg/mL, the MIC (Enterococcus faecium; SP-BIM 13 checkerboard) is reported as 8 µg/mL and the “FIC of SP-BIM 13” value (Enterococcus faecium; [13]) is reported as 0.5. For the same compound, the Interpretation (Enterococcus faecium; antibiotic + SP-BIM 13) was “Additive (Additive: FICI>0.5-1.0)”, the “Σ FIC” value (Enterococcus faecium; antibiotic + SP-BIM 13) was 0.6 and the “MIC in combination, Antibiotic” value (Enterococcus faecium; [14]) was 1 µg/mL. For the same compound, the FIC of antibiotic (Enterococcus faecium; in combination with SP-BIM 13) was 0.1, the MIC (Candida albicans; 24 h, read-out: MIC antibiotic only) was 63 µg/mL and the “MIC in combination: Antibiotic” value (Candida albicans; [15]) was 63. The “FIC of SP-BIM 13” value (Candida albicans; [13]) was 1.0, the Interpretation (Candida albicans; antibiotic + SP-BIM 13) was “Indifferent (Indifferent: FICI>1.0-4.0)” and the “Σ FIC” value (Candida albicans; antibiotic + SP-BIM 13) was <2.0. The FIC of antibiotic (Candida albicans; combination with SP-BIM 13) was 1.0, the MIC (Escherichia coli; read-out: MIC antibiotic only, Escherichia coli, antibiotic alone) was 2 µg/mL and the MIC (Escherichia coli; read-out: MIC antibiotic only, Escherichia coli, antibiotic alone, SP-BIM 9 checkerboard) was 2 µg/mL. For the same compound, the “MIC in combination: Antibiotic” value (Escherichia coli; [15]) was 1, the “FIC of SP-BIM 9” value (Escherichia coli; [16]) was 0.128 and the “FIC of SP-BIM 13” value (Escherichia coli; [13]) was 0.1. The Interpretation (Escherichia coli; antibiotic + SP-BIM 9) was “Synergy (Synergy: FICI≤0.5)”, the “Σ FIC” value (Escherichia coli; antibiotic + SP-BIM 9) was <0.4 and the Interpretation (Escherichia coli; antibiotic + SP-BIM 13) was “Additive (Additive: FICI>0.5-1.0)”. For the same compound, the “Σ FIC” value (Escherichia coli; antibiotic + SP-BIM 13) was <0.6, the FIC of antibiotic (Escherichia coli; combination with SP-BIM 13) was 0.5 and the FIC of antibiotic (Escherichia coli; in combination with SP-BIM 9) was 0.25. The MIC (Klebsiella pneumoniae; SP-BIM 9 checkerboard) was 2 µg/mL, the MIC (Klebsiella pneumoniae; SP-BIM 13 checkerboard) was 2 µg/mL and the “FIC of SP-BIM 9” value (Klebsiella pneumoniae; [16]) was 0.252. The “FIC of SP-BIM 13” value (Klebsiella pneumoniae; [13]) was 0.1, the Interpretation (Klebsiella pneumoniae; antibiotic + SP-BIM 9) was “Synergy (Synergy: FICI≤0.5)” and the “Σ FIC” value (Klebsiella pneumoniae; antibiotic + SP-BIM 9) was <0.5. For the same compound, the Interpretation (Klebsiella pneumoniae; antibiotic + SP-BIM 13) was “Synergy (Synergy: FICI≤0.5)”, the “Σ FIC” value (Klebsiella pneumoniae; antibiotic + SP-BIM 13) was <0.4 and the “MIC in combination, Antibiotic” value (Klebsiella pneumoniae; [17]) was 0.5 µg/mL. For the same compound, the “MIC in combination, Antibiotic” value (Klebsiella pneumoniae; [14]) was 0.5 µg/mL, the FIC of antibiotic (Klebsiella pneumoniae; in combination with SP-BIM 9) was 0.25 and the FIC of antibiotic (Klebsiella pneumoniae; in combination with SP-BIM 13) was 0.3. The MIC (Staphylococcus aureus; SP-BIM 9 checkerboard) was 1 µg/mL, the MIC (Staphylococcus aureus; SP-BIM 13 checkerboard) was 1 µg/mL and the “FIC of SP-BIM 9” value (Staphylococcus aureus; [16]) was 0.02. For the same compound, the “FIC of SP-BIM 13” value (Staphylococcus aureus; [13]) was 0.5, the Interpretation (Staphylococcus aureus; antibiotic + SP-BIM 9) was “Synergy (Synergy: FICI≤0.5)” and the “Σ FIC” value (Staphylococcus aureus; antibiotic + SP-BIM 9) was <0.52. For the same compound, the Interpretation (Staphylococcus aureus; antibiotic + SP-BIM 13) was “Additive (Additive: FICI>0.5-1.0)”, the “Σ FIC” value (Staphylococcus aureus; antibiotic + SP-BIM 13) was 1.0 and the “MIC in combination, Antibiotic” value (Staphylococcus aureus; [17]) was 0.5 µg/mL. For the same compound, the “MIC in combination, Antibiotic” value (Staphylococcus aureus; [14]) was 0.5 µg/mL, the FIC of antibiotic (Staphylococcus aureus; in combination with SP-BIM 9) was 0.50 and the FIC of antibiotic (Staphylococcus aureus; in combination with SP-BIM 13) was 0.5. The MIC (Bacillus cereus; 24 h, antibiotic alone, SP-BIM 9 checkerboard, read-out: MIC antibiotic only) was 8 µg/mL, the “MIC in combination, SP-BIM 9” value (Bacillus cereus; SP-BIM 9 concentration in combination with the labelled antibiotic) was 16 µg/mL and the “FIC of SP-BIM 9” value (Bacillus cereus; [16]) was 0.064. The “FIC of SP-BIM 13” value (Bacillus cereus; [13]) was 0.0, the Interpretation (Bacillus cereus; antibiotic + SP-BIM 9) was “Synergy (Synergy: FICI≤0.5)” and the “Σ FIC” value (Bacillus cereus; antibiotic + SP-BIM 9) was <0.3. For the same compound, the Interpretation (Bacillus cereus; antibiotic + SP-BIM 13) was “Additive (Additive: FICI>0.5-1.0)”, the “Σ FIC” value (Bacillus cereus; antibiotic + SP-BIM 13) was 1.0 and the “MIC in combination, Antibiotic” value (Bacillus cereus; [17]) was 2 µg/mL. For the same compound, the FIC of antibiotic (Bacillus cereus; in combination with SP-BIM 9) was 0.25, the FIC of antibiotic (Bacillus cereus; in combination with SP-BIM 13) was 1.00 and the “FIC of SP-BIM 9” value (Streptococcus pneumoniae [1]; Streptococcus pneumonia (title: Streptococcus pyogenes), SP-BIM 9 in combination with the labelled antibiotic) was 0.26. The Interpretation (Streptococcus pneumoniae [1]; [18]) was “Synergy (Synergy: FICI≤0.5)”, the “Σ FIC” value (Streptococcus pneumoniae [1]; [18]) was <0.27 and the FIC of antibiotic (Streptococcus pneumoniae [1]; Streptococcus pneumonia (title: Streptococcus pyogenes), in combination with SP-BIM 9) was 0.01. The MIC (Streptococcus pneumoniae [1]; Streptococcus pneumoniae, Streptococcus pneumonia (title: Streptococcus pyogenes), SP-BIM 9 checkerboard) was 2 µg/mL, the MIC (Streptococcus pneumoniae [1]; Streptococcus pneumoniae, Streptococcus pneumoniae, SP-BIM 13 checkerboard) was 2 µg/mL and the “FIC of SP-BIM 13” value (Streptococcus pneumoniae [1]; Streptococcus pneumoniae, SP-BIM 13 in combination with the labelled antibiotic) was 0.5. For the same compound, the Interpretation (Streptococcus pneumoniae [1]; [19]) was “Additive (Additive: FICI>0.5-1.0)”, the “Σ FIC” value (Streptococcus pneumoniae [1]; [19]) was <1.0 and the “MIC in combination, Antibiotic” value (Streptococcus pneumoniae [1]; Streptococcus pneumoniae, antibiotic in combination with SP-BIM 13) was 1 µg/mL. For the same compound, the FIC of antibiotic (Streptococcus pneumoniae [1]; Streptococcus pneumoniae, in combination with SP-BIM 13) was 0.5.
`CN(C)c1ccc(C(c2c[nH]c3ccccc23)c2c[nH]c3ccccc23)cc1` [SP-BIM 2, [bis(indoly-3-yl)-4-dimethylaminophenyl]methane] was tested, and the MIC [2] was > 250 µg/mL, the MIC [3] was 250 µg/mL and the MIC [4] was > 250 µg/mL. For the same compound, the MIC [5] was 250 µg/mL, the MIC [6] was > 250 µg/mL and the MIC [7] was > 250 µg/mL. For the same compound, the MIC [8] was 250 µg/mL, the MIC [9] was > 250 µg/mL and the MIC [10] was > 250 µg/mL. For the same compound, the MIC (Streptococcus pneumoniae [11]; [20]) was 125 µg/mL, the MIC (Streptococcus pneumoniae [11]; [21]) was 1 µg/mL and the MIC [12] was > 250 µg/mL.
In the case of `CC(C)(C)c1cc(C(c2c[nH]c3ccccc23)c2c[nH]c3ccccc23)c(O)c(C(C)(C)C)c1` [SP-BIM 3, [bis(indol-3-yl)-3,5-di-tert-butyl-2-hydroxyphenyl]methane], the MIC [2] is reported as > 250 µg/mL, the MIC [3] is reported as 250 µg/mL and the MIC [4] is reported as > 250 µg/mL. The MIC [5] was 250 µg/mL, the MIC [6] was > 250 µg/mL and the MIC [7] was > 250 µg/mL. For the same compound, the MIC [8] was 250 µg/mL, the MIC [9] was > 250 µg/mL and the MIC [10] was > 250 µg/mL. The MIC (Streptococcus pneumoniae [11]; [20]) was 125 µg/mL, the MIC (Streptococcus pneumoniae [11]; [21]) was 1 µg/mL and the MIC [12] was > 250 µg/mL.
